Measured values from ChEMBL document CHEMBL4330066, “Carbohydrate-naphthalene diimide conjugates as potential antiparasitic drugs: Synthesis, evaluation and structure-activity studies” (Eur J Med Chem, 2019).

Tests used:
Trypanosoma brucei = experiment: Trypanocidal activity against Trypanosoma brucei Lister 427, antigenic type MiTat 1.2, clone 221a after 72 hrs by alamarBlue assay; type: functional, organism-based; settings: Lister 427, 72 h
MRC5 = experiment: Cytotoxicity against human MRC5 cells assessed as reduction in cell viability after 48 hrs by MTT assay; type: cell-based; settings: MRC5, 48 h
[1] = Selectivity index, ratio of IC50 for human MRC5 cells to IC50 for Trypanosoma brucei Lister 427, antigenic type MiTat 1.2, clone 221a; type: toxicity; settings: MRC5 cells versus Trypanosoma brucei Lister 427, read-out: Ratio IC50
Leishmania major [2] = experiment: Leishmaniacidal activity against Leishmania major MHOM/IL/80/Friedlin promastigotes after 72 hrs by MTT assay; type: functional, organism-based
Leishmania major [3] = experiment: Leishmaniacidal activity against Leishmania major MHOM/IL/80/Friedlin amastigotes infected in human THP1 cells after 72 hrs by luciferase luminescence assay; type: functional, organism-based; settings: THP-1, 72 h
[4] = Cytotoxicity against human THP1 cells; type: cell-based; settings: THP-1 cells, read-out: TC50 (the source's name)

Compound	IC50 (Trypanosoma brucei) [µM]	IC50 (MRC5) [µM]	selectivity ratio [1]	IC50 (Leishmania major [2]) [µM]	IC50 (Leishmania major [3]) [µM]	CC50 [4] [µM]
CN(C)CCCc1cc2c3c(c(NCCCn4cc(CCO[C@@H]5O[C@H](CO)[C@@H](O[C@H]6O[C@H](CO)[C@@H](O)[C@H](O)[C@H]6O)[C@H](O)[C@H]5O)nn4)cc4c3c1C(=O)N(CCCN(C)C)C4=O)C(=O)N(CCCN(C)C)C2=O	0.34	11.1	32.7	2.89	–	–
CN(C)CCCc1cc2c3c(c(NCCCn4cc(COCCOCCOCCO[C@H]5O[C@H](CO)[C@@H](O)[C@H](O)[C@@H]5O)nn4)cc4c3c1C(=O)N(CCCN(C)C)C4=O)C(=O)N(CCCN(C)C)C2=O	0.19	6.47	34	4.75	–	–
CN(C)CCCN1C(=O)c2ccc3c4c(c(NCCCn5cc(COCCOCCOCCO[C@H]6O[C@H](CO)[C@@H](O)[C@H](O)[C@@H]6O)nn5)cc(c24)C1=O)C(=O)N(CCCN(C)C)C3=O	0.13	1.36	10.5	6.12	–	–
CN(C)CCCc1cc2c3c(c(NCCCn4cc(CCO[C@@H]5O[C@H](CO)[C@@H](O[C@@H]6O[C@H](CO)[C@H](O)[C@H](O)[C@H]6O)[C@H](O)[C@H]5O)nn4)cc4c3c1C(=O)N(CCCN(C)C)C4=O)C(=O)N(CCCN(C)C)C2=O	0.53	7.16	13.5	0.28	> 5	> 10
CN(C)CCCc1cc2c3c(c(NCCCn4cc(COCCOCCOCCO[C@@H]5O[C@H](CO)[C@@H](O[C@@H]6O[C@H](CO)[C@H](O)[C@H](O)[C@H]6O)[C@H](O)[C@H]5O)nn4)cc4c3c1C(=O)N(CCCN(C)C)C4=O)C(=O)N(CCCN(C)C)C2=O	0.83	7.04	8.5	8.98	–	–
CCCNc1cc2c3c(c(CCCN(C)C)cc4c3c1C(=O)N(CCCN(C)C)C4=O)C(=O)N(CCCN(C)C)C2=O	0.003	0.08	26.7	0.74	3.8	–
CN(C)CCCN1C(=O)c2ccc3c4c(c(NCCCn5cc(CO[C@@H]6O[C@H](CO)[C@@H](O[C@H]7O[C@H](CO)[C@@H](O)[C@H](O)[C@H]7O)[C@H](O)[C@H]6O)nn5)cc(c24)C1=O)C(=O)N(CCCN(C)C)C3=O	0.27	4.34	16.1	6.79	–	–
CN(C)CCCN1C(=O)c2ccc3c4c(c(NCCCn5cc(CCO[C@H]6O[C@H](CO)[C@@H](O)[C@H](O)[C@@H]6O)nn5)cc(c24)C1=O)C(=O)N(CCCN(C)C)C3=O	0.18	0.17	0.9	2.79	–	–
CN(C)CCCc1cc2c3c(c(NCCCn4cc(CO[C@H]5O[C@H](CO)[C@@H](O)[C@H](O)[C@@H]5O)nn4)cc4c3c1C(=O)N(CCCN(C)C)C4=O)C(=O)N(CCCN(C)C)C2=O	0.44	6.61	15	0.18	> 5	> 10
CN(C)CCCc1cc2c3c(c(NCCCn4cc(COCCOCCOCCO[C@@H]5O[C@H](CO)[C@@H](O[C@H]6O[C@H](CO)[C@@H](O)[C@H](O)[C@H]6O)[C@H](O)[C@H]5O)nn4)cc4c3c1C(=O)N(CCCN(C)C)C4=O)C(=O)N(CCCN(C)C)C2=O	0.39	> 20	> 51	10.7	–	–
CN(C)CCCc1cc2c3c(c(NCCCn4cc(CO[C@@H]5O[C@H](CO)[C@@H](O[C@@H]6O[C@H](CO)[C@H](O)[C@H](O)[C@H]6O)[C@H](O)[C@H]5O)nn4)cc4c3c1C(=O)N(CCCN(C)C)C4=O)C(=O)N(CCCN(C)C)C2=O	0.37	6.61	17.9	20.1	–	–
CN(C)CCCc1cc2c3c(c(NCCCn4cc(CO[C@@H]5O[C@H](CO)[C@@H](O[C@H]6O[C@H](CO)[C@@H](O)[C@H](O)[C@H]6O)[C@H](O)[C@H]5O)nn4)cc4c3c1C(=O)N(CCCN(C)C)C4=O)C(=O)N(CCCN(C)C)C2=O	0.31	9.56	30.8	11.4	–	–
